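Each compound was tested at five concentrations against cells in 96-well plates for 48 hours. TGI: concentration producing complete growth inhibition.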
Experiments:
Test in all cases: inhibition of tumour cell growth, NCI panel, 48 h
[1] = test system: SR leukemia
[2] = test system: CCRF-CEM leukemia
[3] = test system: SNB-75 CNS
[4] = test system: MDA-MB-435
[5] = test system: HS 578T breast
[6] = test system: OVCAR-3 ovarian
[7] = test system: NCI-H23 lung
[8] = test system: A549 NSCLC
[9] = test system: HCT-116 colon
[10] = test system: SK-MEL-5 melanoma
[11] = test system: OVCAR-5 ovarian
[12] = test system: HCT-15 colon
[13] = test system: SK-MEL-28 melanoma
[14] = test system: BT-549 breast
[15] = test system: HOP-62 NSCLC
[16] = test system: SK-MEL-2 melanoma
[17] = test system: A498 renal
[18] = test system: NCI-H522 lung
[19] = test system: NCI-H226 lung
[20] = test system: OVCAR-8 ovarian
[21] = test system: TK-10 renal
[22] = test system: IGROV1 ovarian
[23] = test system: MDA-MB-231 breast
[24] = test system: PC-3 prostate
[25] = test system: COLO 205 colon
[26] = test system: NCI-H460 lung
[27] = test system: SN12C renal
[28] = test system: K-562 leukemia
[29] = test system: T-47D breast
[30] = test system: U251 CNS
[31] = test system: OVCAR-4 ovarian
[32] = test system: UACC-62 melanoma
[33] = test system: UO-31 renal
[34] = test system: M14 melanoma
[35] = test system: SNB-19 CNS
[36] = test system: SW-620 colon
[37] = test system: SK-OV-3 ovarian
[38] = test system: MOLT-4 leukemia
[39] = test system: CAKI-1 renal
[40] = test system: SF-295 CNS
[41] = test system: 786-0 renal
[42] = test system: LOX IMVI melanoma
[43] = test system: HCC-2998 colon
[44] = test system: MCF7 breast
[45] = test system: SF-268 CNS
[46] = test system: UACC-257 melanoma
[47] = test system: RPMI-8226 leukemia
[48] = test system: MDA-N
[49] = test system: DU-145 prostate
[50] = test system: KM12 colon
[51] = test system: MALME-3M melanoma
[52] = test system: NCI/ADR-RES ovarian
[53] = test system: HT29 colon
[54] = test system: EKVX NSCLC
[55] = test system: RXF 393 renal
[56] = test system: ACHN renal
[57] = test system: HL-60(TB) leukemia
[58] = test system: HOP-92 NSCLC
[59] = test system: SF-539 CNS

Cc1c(C)c(S(=O)(=O)N(CCCN)OCCCN)c(C)c2c1OC(C)(C)C2
TGI [1]: > 100 µM | TGI [2]: 90 µM | TGI [3]: 59.5 µM | TGI [4]: > 100 µM | TGI [5]: 40.3 µM | TGI [6]: > 100 µM | TGI [7]: > 100 µM | TGI [8]: > 100 µM | TGI [9]: > 100 µM | TGI [10]: > 100 µM | TGI [11]: 61.6 µM | TGI [12]: > 100 µM | TGI [13]: > 100 µM | TGI [14]: > 100 µM | TGI [15]: > 100 µM | TGI [16]: 26.7 µM | TGI [17]: 42 µM | TGI [18]: 30.6 µM | TGI [19]: > 100 µM | TGI [20]: > 100 µM | TGI [21]: > 100 µM | TGI [22]: 45.8 µM | TGI [23]: 33.3 µM | TGI [24]: 43.3 µM | TGI [25]: 32.5 µM | TGI [26]: > 100 µM | TGI [27]: > 100 µM | TGI [28]: > 100 µM | TGI [29]: > 100 µM | TGI [30]: 38.3 µM | TGI [31]: > 100 µM | TGI [32]: > 100 µM | TGI [33]: > 100 µM | TGI [34]: 34.1 µM | TGI [35]: 63.5 µM | TGI [36]: 59.8 µM | TGI [37]: > 100 µM | TGI [38]: 42.7 µM | TGI [39]: > 100 µM | TGI [40]: 98.9 µM | TGI [41]: 68 µM | TGI [42]: 34.9 µM | TGI [43]: 40.9 µM | TGI [44]: 38.4 µM | TGI [45]: > 100 µM | TGI [46]: 89.3 µM | TGI [47]: > 100 µM | TGI [48]: 33.6 µM | TGI [49]: > 100 µM | TGI [50]: 38.9 µM | TGI [51]: 42.1 µM | TGI [52]: > 100 µM | TGI [53]: > 100 µM | TGI [54]: 31.3 µM | TGI [55]: 48.9 µM | TGI [56]: > 100 µM

C=CC(C)CCC(C/C=C(\C)CCC=C(C)C)C(=C)CCCC(C)C (centres undefined)
TGI [1]: > 100 µM | TGI [2]: > 100 µM | TGI [3]: > 100 µM | TGI [4]: > 100 µM | TGI [5]: > 100 µM | TGI [6]: > 100 µM | TGI [57]: > 100 µM | TGI [58]: > 100 µM | TGI [7]: > 100 µM | TGI [8]: > 100 µM | TGI [9]: > 100 µM | TGI [10]: > 100 µM | TGI [11]: > 100 µM | TGI [12]: > 100 µM | TGI [13]: > 100 µM | TGI [14]: > 100 µM | TGI [15]: > 100 µM | TGI [16]: > 100 µM | TGI [17]: > 100 µM | TGI [18]: > 100 µM | TGI [20]: > 100 µM | TGI [59]: > 100 µM | TGI [21]: > 100 µM | TGI [22]: > 100 µM | TGI [23]: > 100 µM | TGI [24]: > 100 µM | TGI [25]: > 100 µM | TGI [26]: > 100 µM | TGI [27]: > 100 µM | TGI [28]: > 100 µM | TGI [29]: > 100 µM | TGI [30]: > 100 µM | TGI [31]: > 100 µM | TGI [32]: > 100 µM | TGI [33]: > 100 µM | TGI [34]: > 100 µM | TGI [35]: > 100 µM | TGI [36]: > 100 µM | TGI [37]: > 100 µM | TGI [38]: > 100 µM | TGI [39]: > 100 µM | TGI [40]: > 100 µM | TGI [41]: > 100 µM | TGI [42]: > 100 µM | TGI [43]: > 100 µM | TGI [44]: > 100 µM | TGI [45]: > 100 µM | TGI [46]: > 100 µM | TGI [47]: > 100 µM | TGI [48]: > 100 µM | TGI [49]: > 100 µM | TGI [50]: > 100 µM | TGI [51]: > 100 µM | TGI [52]: > 100 µM | TGI [53]: > 100 µM | TGI [54]: > 100 µM | TGI [55]: > 100 µM | TGI [56]: > 100 µM
